Numbers after ± are expanded uncertainties.
Test: xn = mol fraction of the nth substance listed
Conditions: 101 kPa, Liquid; for mass density: Vibrating tube method

## NCCO.O=CO [2-hydroxyethylammonium formate] + CO
288.15 K, x2 = 0
  mass density: 1183.57 ± 31 kg/m3
  speed of sound: 1733.9 ± 9.9 m/s
288.15 K, x2 = 0.055
  mass density: 1176.05 ± 31 kg/m3
  speed of sound: 1744.5 ± 9.8 m/s
288.15 K, x2 = 0.098
  mass density: 1169.59 ± 31 kg/m3
  speed of sound: 1733.2 ± 9.7 m/s
288.15 K, x2 = 0.193
  mass density: 1153.03 ± 30 kg/m3
  speed of sound: 1703.2 ± 9.4 m/s
288.15 K, x2 = 0.296
  mass density: 1132.54 ± 30 kg/m3
  speed of sound: 1666.2 ± 9 m/s
288.15 K, x2 = 0.399
  mass density: 1108.24 ± 30 kg/m3
  speed of sound: 1623.5 ± 8.7 m/s
288.15 K, x2 = 0.5
  mass density: 1079.69 ± 30 kg/m3
  speed of sound: 1573.6 ± 8.4 m/s
288.15 K, x2 = 0.598
  mass density: 1046.63 ± 30 kg/m3
  speed of sound: 1516.4 ± 8 m/s
288.15 K, x2 = 0.701
  mass density: 1005.33 ± 30 kg/m3
  speed of sound: 1448.4 ± 7.6 m/s
288.15 K, x2 = 0.799
  mass density: 953.96 ± 30 kg/m3
  speed of sound: 1365.8 ± 7.2 m/s
288.15 K, x2 = 0.9
  mass density: 887.02 ± 30 kg/m3
  speed of sound: 1265.2 ± 6.7 m/s
288.15 K, x2 = 0.951
  mass density: 844.491 ± 30 kg/m3
  speed of sound: 1203.6 ± 6.5 m/s
290.65 K, x2 = 0
  mass density: 1181.81 ± 31 kg/m3
  speed of sound: 1727.4 ± 9.9 m/s
290.65 K, x2 = 0.055
  mass density: 1174.4 ± 31 kg/m3
  speed of sound: 1739.2 ± 9.8 m/s
290.65 K, x2 = 0.098
  mass density: 1167.93 ± 31 kg/m3
  speed of sound: 1727.9 ± 9.7 m/s
290.65 K, x2 = 0.193
  mass density: 1151.34 ± 30 kg/m3
  speed of sound: 1697.7 ± 9.4 m/s
290.65 K, x2 = 0.296
  mass density: 1130.83 ± 30 kg/m3
  speed of sound: 1660.7 ± 9 m/s
290.65 K, x2 = 0.399
  mass density: 1106.5 ± 30 kg/m3
  speed of sound: 1617.8 ± 8.7 m/s
290.65 K, x2 = 0.5
  mass density: 1077.9 ± 30 kg/m3
  speed of sound: 1567.7 ± 8.3 m/s
290.65 K, x2 = 0.598
  mass density: 1044.79 ± 30 kg/m3
  speed of sound: 1510.3 ± 8 m/s
290.65 K, x2 = 0.701
  mass density: 1003.42 ± 30 kg/m3
  speed of sound: 1441.8 ± 7.6 m/s
290.65 K, x2 = 0.799
  mass density: 951.962 ± 30 kg/m3
  speed of sound: 1358.8 ± 7.2 m/s
290.65 K, x2 = 0.9
  mass density: 884.894 ± 30 kg/m3
  speed of sound: 1257.6 ± 6.7 m/s
290.65 K, x2 = 0.951
  mass density: 842.26 ± 30 kg/m3
  speed of sound: 1195.6 ± 6.4 m/s
293.15 K, x2 = 0
  mass density: 1180.04 ± 31 kg/m3
  speed of sound: 1721.3 ± 9.8 m/s
293.15 K, x2 = 0.055
  mass density: 1172.74 ± 31 kg/m3
  speed of sound: 1734 ± 9.8 m/s
293.15 K, x2 = 0.098
  mass density: 1166.26 ± 31 kg/m3
  speed of sound: 1722.6 ± 9.6 m/s
293.15 K, x2 = 0.193
  mass density: 1149.65 ± 30 kg/m3
  speed of sound: 1692.4 ± 9.3 m/s
293.15 K, x2 = 0.296
  mass density: 1129.11 ± 30 kg/m3
  speed of sound: 1655.3 ± 9 m/s
293.15 K, x2 = 0.399
  mass density: 1104.75 ± 30 kg/m3
  speed of sound: 1612.1 ± 8.7 m/s
293.15 K, x2 = 0.5
  mass density: 1076.11 ± 30 kg/m3
  speed of sound: 1561.8 ± 8.3 m/s
293.15 K, x2 = 0.598
  mass density: 1042.95 ± 30 kg/m3
  speed of sound: 1504.3 ± 8 m/s
293.15 K, x2 = 0.701
  mass density: 1001.51 ± 30 kg/m3
  speed of sound: 1435.3 ± 7.6 m/s
293.15 K, x2 = 0.799
  mass density: 949.965 ± 30 kg/m3
  speed of sound: 1351.9 ± 7.2 m/s
293.15 K, x2 = 0.9
  mass density: 882.765 ± 30 kg/m3
  speed of sound: 1250.2 ± 6.7 m/s
293.15 K, x2 = 0.951
  mass density: 840.027 ± 30 kg/m3
  speed of sound: 1187.8 ± 6.4 m/s
295.65 K, x2 = 0
  mass density: 1178.27 ± 31 kg/m3
  speed of sound: 1715.1 ± 9.8 m/s
295.65 K, x2 = 0.055
  mass density: 1171.09 ± 31 kg/m3
  speed of sound: 1728.8 ± 9.8 m/s
295.65 K, x2 = 0.098
  mass density: 1164.6 ± 31 kg/m3
  speed of sound: 1717.4 ± 9.6 m/s
295.65 K, x2 = 0.193
  mass density: 1147.97 ± 30 kg/m3
  speed of sound: 1687 ± 9.3 m/s
295.65 K, x2 = 0.296
  mass density: 1127.4 ± 30 kg/m3
  speed of sound: 1649.9 ± 9 m/s
295.65 K, x2 = 0.399
  mass density: 1103 ± 30 kg/m3
  speed of sound: 1606.5 ± 8.7 m/s
295.65 K, x2 = 0.5
  mass density: 1074.32 ± 30 kg/m3
  speed of sound: 1556 ± 8.3 m/s
295.65 K, x2 = 0.598
  mass density: 1041.11 ± 30 kg/m3
  speed of sound: 1498.2 ± 7.9 m/s
295.65 K, x2 = 0.701
  mass density: 999.603 ± 30 kg/m3
  speed of sound: 1428.8 ± 7.5 m/s
295.65 K, x2 = 0.799
  mass density: 947.967 ± 30 kg/m3
  speed of sound: 1345.1 ± 7.1 m/s
295.65 K, x2 = 0.9
  mass density: 880.636 ± 30 kg/m3
  speed of sound: 1242.7 ± 6.7 m/s
295.65 K, x2 = 0.951
  mass density: 837.792 ± 30 kg/m3
  speed of sound: 1180 ± 6.4 m/s
298.15 K, x2 = 0
  mass density: 1176.49 ± 31 kg/m3
  speed of sound: 1709 ± 9.8 m/s
298.15 K, x2 = 0.055
  mass density: 1169.43 ± 31 kg/m3
  speed of sound: 1723.6 ± 9.7 m/s
298.15 K, x2 = 0.098
  mass density: 1162.94 ± 31 kg/m3
  speed of sound: 1712.1 ± 9.6 m/s
298.15 K, x2 = 0.193
  mass density: 1146.28 ± 30 kg/m3
  speed of sound: 1681.7 ± 9.3 m/s
298.15 K, x2 = 0.296
  mass density: 1125.68 ± 30 kg/m3
  speed of sound: 1644.5 ± 9 m/s
298.15 K, x2 = 0.399
  mass density: 1101.26 ± 30 kg/m3
  speed of sound: 1600.9 ± 8.6 m/s
298.15 K, x2 = 0.5
  mass density: 1072.54 ± 30 kg/m3
  speed of sound: 1550.2 ± 8.3 m/s
298.15 K, x2 = 0.598
  mass density: 1039.27 ± 30 kg/m3
  speed of sound: 1492.1 ± 7.9 m/s
298.15 K, x2 = 0.701
  mass density: 997.697 ± 30 kg/m3
  speed of sound: 1422.3 ± 7.5 m/s
298.15 K, x2 = 0.799
  mass density: 945.97 ± 30 kg/m3
  speed of sound: 1338.3 ± 7.1 m/s
298.15 K, x2 = 0.9
  mass density: 878.505 ± 30 kg/m3
  speed of sound: 1235.3 ± 6.6 m/s
298.15 K, x2 = 0.951
  mass density: 835.555 ± 30 kg/m3
  speed of sound: 1172.1 ± 6.3 m/s
300.65 K, x2 = 0
  mass density: 1174.71 ± 31 kg/m3
  speed of sound: 1702.9 ± 9.8 m/s
300.65 K, x2 = 0.055
  mass density: 1167.77 ± 31 kg/m3
  speed of sound: 1718.4 ± 9.7 m/s
300.65 K, x2 = 0.098
  mass density: 1161.28 ± 31 kg/m3
  speed of sound: 1706.9 ± 9.6 m/s
300.65 K, x2 = 0.193
  mass density: 1144.6 ± 30 kg/m3
  speed of sound: 1676.4 ± 9.3 m/s
300.65 K, x2 = 0.296
  mass density: 1123.97 ± 30 kg/m3
  speed of sound: 1639 ± 8.9 m/s
300.65 K, x2 = 0.399
  mass density: 1099.51 ± 30 kg/m3
  speed of sound: 1595.3 ± 8.6 m/s
300.65 K, x2 = 0.5
  mass density: 1070.75 ± 30 kg/m3
  speed of sound: 1544.4 ± 8.3 m/s
300.65 K, x2 = 0.598
  mass density: 1037.43 ± 30 kg/m3
  speed of sound: 1486.1 ± 7.9 m/s
300.65 K, x2 = 0.701
  mass density: 995.792 ± 30 kg/m3
  speed of sound: 1415.9 ± 7.5 m/s
300.65 K, x2 = 0.799
  mass density: 943.973 ± 30 kg/m3
  speed of sound: 1331.5 ± 7.1 m/s
300.65 K, x2 = 0.9
  mass density: 876.371 ± 30 kg/m3
  speed of sound: 1227.9 ± 6.6 m/s
300.65 K, x2 = 0.951
  mass density: 833.316 ± 30 kg/m3
  speed of sound: 1164.4 ± 6.3 m/s
303.15 K, x2 = 0
  mass density: 1172.94 ± 31 kg/m3
  speed of sound: 1696.8 ± 9.8 m/s
303.15 K, x2 = 0.055
  mass density: 1166.12 ± 31 kg/m3
  speed of sound: 1713.2 ± 9.7 m/s
303.15 K, x2 = 0.098
  mass density: 1159.62 ± 31 kg/m3
  speed of sound: 1701.7 ± 9.6 m/s
303.15 K, x2 = 0.193
  mass density: 1142.91 ± 30 kg/m3
  speed of sound: 1671.1 ± 9.3 m/s
303.15 K, x2 = 0.296
  mass density: 1122.26 ± 30 kg/m3
  speed of sound: 1633.6 ± 8.9 m/s
303.15 K, x2 = 0.399
  mass density: 1097.77 ± 30 kg/m3
  speed of sound: 1589.7 ± 8.6 m/s
303.15 K, x2 = 0.5
  mass density: 1068.96 ± 30 kg/m3
  speed of sound: 1538.6 ± 8.2 m/s
303.15 K, x2 = 0.598
  mass density: 1035.59 ± 30 kg/m3
  speed of sound: 1480 ± 7.9 m/s
303.15 K, x2 = 0.701
  mass density: 993.884 ± 30 kg/m3
  speed of sound: 1409.5 ± 7.5 m/s
303.15 K, x2 = 0.799
  mass density: 941.97 ± 30 kg/m3
  speed of sound: 1324.7 ± 7 m/s
303.15 K, x2 = 0.9
  mass density: 874.236 ± 30 kg/m3
  speed of sound: 1220.6 ± 6.6 m/s
303.15 K, x2 = 0.951
  mass density: 831.073 ± 30 kg/m3
  speed of sound: 1156.6 ± 6.3 m/s
305.65 K, x2 = 0
  mass density: 1171.16 ± 31 kg/m3
305.65 K, x2 = 0.055
  mass density: 1164.47 ± 31 kg/m3
305.65 K, x2 = 0.098
  mass density: 1157.95 ± 30 kg/m3
305.65 K, x2 = 0.193
  mass density: 1141.23 ± 30 kg/m3
305.65 K, x2 = 0.296
  mass density: 1120.55 ± 30 kg/m3
305.65 K, x2 = 0.399
  mass density: 1096.02 ± 30 kg/m3
305.65 K, x2 = 0.5
  mass density: 1067.17 ± 30 kg/m3
305.65 K, x2 = 0.598
  mass density: 1033.75 ± 30 kg/m3
305.65 K, x2 = 0.701
  mass density: 991.972 ± 30 kg/m3
305.65 K, x2 = 0.799
  mass density: 939.967 ± 30 kg/m3
305.65 K, x2 = 0.9
  mass density: 872.095 ± 30 kg/m3
305.65 K, x2 = 0.951
  mass density: 828.823 ± 30 kg/m3
